row,melting point,Structure (SMILES)
1,119 to 121 °C,COC(=O)c1c[nH]c(C2CC2)n1
2,85 to 87 °C,Oc1cccc2ccc(N3CCCC3)nc12
3,217 to 219 °C,CC1CC(C)CN(S(=O)(=O)c2cccc(C(=O)O)c2)C1 (stereo not drawn)
4,228 to 230 °C,O=C(O)c1ccc2nc(Cl)ccc2c1
5,65 to 67 °C,COC(=O)CNc1cccc(F)c1
6,171 to 173 °C,O=C(O)c1ccc(COc2ccc3ccccc3c2)o1
7,112 to 114 °C,COC(=O)/C=C/c1ccc(S(=O)(=O)Cl)cc1
8,192 to 194 °C,Cc1cc(C#N)ccc1C(=O)O
9,184 to 186 °C,O=S(=O)(Cl)c1ccc(N2CCCS2(=O)=O)cc1
10,106 to 108 °C,OC(c1c(Cl)cccc1Cl)C1CCOCC1 (stereo not drawn)
11,132 to 134 °C,CS(=O)(=O)c1ccc(N)cc1
12,216 to 218 °C,C#CCOc1ccc(C(=O)O)cc1
13,142 to 144 °C,O=C(O)CCNC(=O)c1ccc(Br)cc1
14,153 to 157 °C,Cc1ccc(C(=O)c2c(N)sc3c2CCC3)cc1
15,201 to 203 °C,O=C(O)c1ccccc1CN1C(=O)CNC1=O
16,46 to 48 °C,CC(O)CS(=O)(=O)c1ccccc1 (stereo not drawn)
17,97 to 99 °C,Cc1ccc(C2CC2C(=O)O)cc1C (stereo not drawn)
18,241 to 243 °C,O=C(O)c1ccc(-c2nc(C3CC3)no2)cc1
19,289 to 291 °C,Cc1nc(C)n(-c2ccc(C(=O)O)cc2)n1
20,127 to 129 °C,CC(N)c1ccc(OCC(N)=O)cc1 (stereo not drawn)

row,melting point,Structure (SMILES)
1,85 to 87 °C,COc1cc([N+](=O)[O-])ccc1NC(=O)C(C)Cl (stereo not drawn)
2,145 to 147 °C,O=C(O)CS(=O)(=O)c1ccc(Br)cc1
3,74 to 76 °C,Ic1ccc(OCc2ccccn2)cc1
4,159 to 161 °C,CC(=Cc1ccc(Cl)cc1)C(=O)O
5,209 to 211 °C,O=C(O)c1nn(-c2ccc(F)cc2)c2c1CCCC2
6,179 to 181 °C,COc1ccccc1N(C)S(=O)(=O)c1ccc(Cl)c(C(=O)O)c1
7,243 to 245 °C,O=C(O)c1ccc(S(=O)(=O)N2CCCC2)cc1
8,137 to 139 °C,Cc1ccc(Cl)c(OC(C)C(=O)O)c1 (stereo not drawn)
9,134 to 136 °C,O=C(O)CC1CCCN1C(=O)c1ccc(Br)c(F)c1 (stereo not drawn)
10,237 to 239 °C,O=C(O)c1ccncc1Br
11,148 to 150 °C,COc1cccc(CC(NC(C)=O)C(=O)O)c1 (stereo not drawn)
12,110 to 112 °C,N#CCC(=O)N1CCN(C(c2ccccc2)c2ccccc2)CC1
13,119 to 121 °C,CC(=O)c1cccc(OCC(=O)O)c1
14,282 to 284 °C,O=C(O)c1ccc(-c2nnn[nH]2)cc1
15,323 to 325 °C,CN(C)c1ncnc2cc(C(=O)O)ccc12
16,102 to 104 °C,CC(=O)c1cn(-c2ccccc2)nn1
17,141 to 143 °C,CC(=O)Nc1ccc(Cl)cc1N
18,118 to 120 °C,Cn1c(S)nnc1COc1ccc(Cl)cc1
19,249 to 251 °C,O=C(O)c1cccc(S(=O)(=O)Nc2ccc3c(c2)OCO3)c1
20,151 to 153 °C,Fc1ccc(NC2CCN(c3ccncc3)CC2)cc1

row,melting point,Structure (SMILES)
1,135 to 137 °C,CCOC(=O)c1ccc(S)nc1
2,224 to 226 °C,O=C(O)c1cc(-c2ccc(OC(F)F)cc2)nc2ccccc12
3,218 to 220 °C,CC(=O)Nc1ncc(-c2ccc(O)cc2)s1
4,177 to 179 °C,Cc1csc(SCc2c(C(=O)O)oc3ccccc23)n1
5,189 to 191 °C,CSc1nc(Cl)ccc1C(=O)O
6,47 to 51 °C,CCc1ccc(C(N)=S)cc1
7,207 to 210 °C,Cc1csc(Sc2ccc(C(=O)O)cc2[N+](=O)[O-])n1
8,190 to 192 °C,O=C(O)c1cccc(S(=O)(=O)NCc2ccco2)c1
9,63 to 65 °C,CN1CCN(CCOc2ccc(N)cc2)CC1
10,167 to 169 °C,COc1ccc(C2(C(=O)O)CCOCC2)cc1
11,269 to 271 °C,NC(=O)c1cc(C(=O)O)nn1-c1ccccc1
12,98 to 102 °C,O=C(O)Cc1cc(=O)n(-c2ccccc2)[nH]1
13,163 to 165 °C,O=C(O)C(Cc1ccccc1)N1CCCOC1=O (stereo not drawn)
14,74 to 76 °C,COC(=O)c1cc(Oc2ccc(Cl)cc2)ccc1N
15,174 to 176 °C,CC1CNC(=O)N(c2ccccc2)C1=O (stereo not drawn)
16,210 to 212 °C,COc1ccccc1NS(=O)(=O)c1ccc2oc(N)nc2c1
17,74 to 76 °C,O=C(Nc1cccc(Cl)c1N1CCOCC1)OCC(F)(F)F
18,173 to 175 °C,COc1ccc(CC(N)=O)cc1F
19,258 to 260 °C,O=C(O)C(Cc1ccccc1)NS(=O)(=O)c1ccccc1F (stereo not drawn)
20,157 to 159 °C,O=C(NC1CC1)c1cccc(O)c1

# Further lines, the molecule ahead of its results:
row,Structure (SMILES),melting point
1,CNS(=O)(=O)c1csc(C(=O)O)c1,170 to 172 °C
2,Sc1nnc(-c2ccccc2)c2ccccc12,178 to 180 °C
3,CC(C)S(=O)(=O)Nc1ccccc1F,52 to 54 °C
4,O=C(O)CC12CC3CC(C1)CC(C(F)(F)F)(C3)C2,121 to 123 °C
5,CN1C(=O)CNC(=O)c2ccccc21,175 to 177 °C
6,Cc1cc(C)nc(-n2nc(C)cc2N)n1,173 to 175 °C
7,Cn1nccc1CO,58 to 60 °C
8,Cn1cc([N+](=O)[O-])ccc1=O,172 to 174 °C
9,Cc1n[nH]c(-c2ccccc2N)n1,153 to 155 °C
10,Fc1cccc(F)c1-n1c(S)nc2ccccc21,255 to 257 °C
11,O=C(CCl)NC(=O)NC12CC3CC(CC(C3)C1)C2,169 to 171 °C
12,Cc1ccc(NS(=O)(=O)c2cc([N+](=O)[O-])ccc2NN)c(C)c1,165 to 167 °C
13,CNS(=O)(=O)c1c[nH]c(=O)[nH]c1=O,279 to 281 °C
14,CNCCC1CCN(C2CCN(C)CC2)CC1,48 to 50 °C
15,Cn1ccnc1C(=O)OCC(F)(F)F,83 to 85 °C
16,N=C(NN)c1cc(Cl)ccn1,248 to 250 °C
17,Nc1ccc(-n2cncn2)c(C(F)(F)F)c1,127 to 129 °C
18,Nc1cc(C(F)(F)F)no1,52 to 54 °C
19,NS(=O)(=O)c1c[nH]cn1,232 to 234 °C
20,COc1n[nH]c(N)c1C#N,179 to 181 °C
21,CCC(Br)C(=O)Nc1cc(C)on1 (stereo not drawn),103 to 105 °C

row,Structure (SMILES),melting point
1,Cn1c(Cl)nc(Cl)c1C=O,61 to 63 °C
2,Cn1c(C=O)nc2c1c(=O)[nH]c(=O)n2C,284 to 286 °C
3,CC(C)(C)c1ncccc1O,159 to 161 °C
4,CCOC(=O)c1c(C2CCCCC2)csc1N,109 to 111 °C
5,NS(=O)(=O)c1ccc(-c2ccc(Br)cc2)cc1,207 to 209 °C
6,Nc1nc(Br)ccc1O,153 to 155 °C
7,CC(C)(C)c1ccc(-c2csc(N)n2)cc1,127 to 129 °C
8,CC1=NN(c2cccc(C(F)(F)F)c2)C(=O)C1,127 to 129 °C
9,Nc1cccc2c1CC(O)C2 (stereo not drawn),125 to 127 °C
10,O=[N+]([O-])c1ccc(OCc2ccco2)nc1,87 to 89 °C
11,ClCc1nnc(-c2cccs2)o1,77 to 79 °C
12,COc1ccc(-c2noc(=O)[nH]2)cc1OC,211 to 213 °C
13,Cn1cc(C=NNC(N)=S)cn1,189 to 191 °C
14,CNC(=O)c1cc(OC)c(OC)cc1N,129 to 131 °C
15,CCOC(=O)c1sc(C(C)N)nc1C (stereo not drawn),53 to 55 °C
16,O=[N+]([O-])c1cc2c(cc1S(=O)(=O)Cl)OCCCO2,125 to 127 °C
17,CCC(CC)(CNC(=O)OC(C)(C)C)C(=O)O,130 to 132 °C
18,ClCc1cnn(-c2ccccc2)c1,65 to 69 °C
19,COc1ccc(F)cc1C(C)N (stereo not drawn),74 to 76 °C
20,CC(=O)NCc1ccc(C(=O)CCl)o1,125 to 127 °C
21,CNC(=O)Cc1noc(CCl)n1,89 to 91 °C

row,Structure (SMILES),melting point
1,Clc1ccc2ccc(Cl)c(Cl)c2n1,123 to 125 °C
2,CC(Cl)C(=O)Nc1ccc([N+](=O)[O-])cc1C(F)(F)F (stereo not drawn),183 to 185 °C
3,CC(C)c1cc(Br)ccc1O,48 to 50 °C
4,Cn1c(NCCO)nc2ccccc21,75 to 77 °C
5,Cc1nc2c(F)cccc2c(Cl)c1C,95 to 97 °C
6,O=c1[nH]c(-c2ccc(Cl)s2)nc2c1CCC2,276 to 278 °C
7,Cc1nc(-c2ccc(Cl)cc2)cs1,119 to 121 °C
8,O=C(O)C=CC1CCC=CO1 (stereo not drawn),81 to 83 °C
9,O=[N+]([O-])c1ccc2c(c1)CCCN2,155 to 157 °C
10,c1nnc(C2CCNCC2)[nH]1,208 to 210 °C
11,Cc1cc(NC(=O)CCl)n(C)n1,115 to 117 °C
12,O=C1c2ccccc2C(=O)N1CCCCCCO,57 to 59 °C
13,CC(C)n1nnc(C(=O)O)c1C(F)(F)F,99 to 101 °C
14,Oc1nc(O)c2c(n1)CCC2,324 to 326 °C
15,Sc1nc2ccccc2n1CCc1ccccc1,177 to 179 °C
16,O=C1CCc2cc(C(=O)CCl)c(F)cc2N1,257 to 259 °C
17,CS(=O)(=O)c1cc(Cl)c(C(=O)O)c(Cl)c1,144 to 146 °C
18,CCOC(=O)c1c(CC(C)C)csc1N,58 to 60 °C
19,Oc1ccc(-n2cnc3ccccc32)cc1,278 to 280 °C
20,COC(=O)N1CCc2n[nH]c(=O)cc2C1,189 to 191 °C
21,O=Cc1c(-c2ccccc2)nc2sccn12,128 to 130 °C

row,Structure (SMILES),melting point
1,CN(C)C(=O)c1ccc(Cl)c(NC(=O)OCC(F)(F)F)c1,96 to 98 °C
2,Nc1nnc(CO)s1,169 to 171 °C
3,CC(C)(C)Oc1c(F)cc(N)cc1F,99 to 101 °C
4,N#Cc1cccc(Cc2cnc(N)s2)c1,143 to 145 °C
5,CC(=O)N(C)CC(=O)O,137 to 139 °C
6,Cc1nc(CC(C)C)c(C(=O)O)s1,116 to 118 °C
7,CCc1c(C)sc(N)c1C#N,103 to 105 °C
8,CCN(CC)S(=O)(=O)c1cccc(C(=O)NN)c1,133 to 135 °C
9,Cc1c(C(=O)O)oc2c(Br)cc(Cl)cc12,279 to 281 °C
10,Nc1cccnc1-n1cccn1,65 to 67 °C
11,Nc1ccc2[nH]c3c(c2c1)CCCC3,174 to 176 °C
12,O=C1CCCCC1n1ccc([N+](=O)[O-])n1 (stereo not drawn),128 to 130 °C
13,OCc1c(Cl)ccc2cccnc12,93 to 95 °C
14,CC(=O)c1ccc(NC(=O)c2ccc(C#N)cc2)cc1,228 to 230 °C
15,c1cc(-c2nnc[nH]2)ccn1,225 to 227 °C
16,ClCc1nnnn1-c1ccccc1,45 to 73 °C
17,Cc1cc(N)nc(S)n1,295 to 297 °C
18,Nc1ccc(-n2cc[nH]c2=O)cc1,217 to 219 °C
19,CC(C)(C)OC(=O)NCCCCCCC(=O)O,44 to 46 °C
20,O=C(O)c1cc(Cl)cc([N+](=O)[O-])c1,146 to 148 °C

# Reference: a melting point compilation (Tetko et al.)
